Where a SMILES comes first, the peptide text is derived from it. Where no end group is shown, it is not given here. [ ]: non-standard residue; d: D form. The star is where a group is joined. Hexanoyl = CCCCCC(=O)*; Aib = CC(C)(N)C(=O)O
Assays:
[1] = Rat serum stability studies (remaining active peptide by DiscoveRx cAMP on CHO-VPAC2 cells); format: in vitro ADME
Summary of the method: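 Rat serum, 18 h: +aprotinin aliquot at 4° C, no-aprotinin aliquot at 37° C. Then 30 min RT step, supernatant removed, 1 h shaking at 300 rpm. DiscoveRx cAMP kit on CHO-VPAC2; EC50 from cAMP data vs standards.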

[2] = molecular target: T1, human PAC1 (Homo sapiens, UniProt P41586); test: Filter binding assay, membranes of cells transiently transfected with human PAC1, 125I-labeled PACAP-27 tracer (Table 2); design: expressed in transfected cells; details: read-out: Human PAC1 Receptor Binding
T1 sequence (P41586 21-468): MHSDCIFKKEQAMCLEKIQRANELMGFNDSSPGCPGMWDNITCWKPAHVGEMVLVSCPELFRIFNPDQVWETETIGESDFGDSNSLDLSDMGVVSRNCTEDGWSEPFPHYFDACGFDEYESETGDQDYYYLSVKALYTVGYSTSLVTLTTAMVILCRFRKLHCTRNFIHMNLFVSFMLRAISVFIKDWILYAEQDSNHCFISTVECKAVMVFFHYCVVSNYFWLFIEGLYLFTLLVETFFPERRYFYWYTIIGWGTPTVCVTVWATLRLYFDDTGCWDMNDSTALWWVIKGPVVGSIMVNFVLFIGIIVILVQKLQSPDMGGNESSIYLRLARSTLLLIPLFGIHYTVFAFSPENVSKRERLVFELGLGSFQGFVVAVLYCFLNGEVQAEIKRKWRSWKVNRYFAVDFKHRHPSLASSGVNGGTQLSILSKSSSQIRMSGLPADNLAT
Summary of the method: (§1)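 Scintillation counting of filter-retained radioligand gave the read-out. Compounds competed with the labelled tracer (about 40000 cpm) for 2.5 μg membranes during 1 hour of shaking in HEPES pH 7.4 buffer containing 0.5% BSA.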

[3] = molecular target: T2, human VPAC2 (Homo sapiens, UniProt P41587); test: Alpha screen cAMP in vitro potency, human VPAC2 receptor; format: cell-based; details: cAMP generation; single result from two analyses performed in a single run; read-out: Human VPAC2 Receptor: Alpha Screen EC50
T2 construct: expressed in transfected cells
T2 sequence (P41587 24-438): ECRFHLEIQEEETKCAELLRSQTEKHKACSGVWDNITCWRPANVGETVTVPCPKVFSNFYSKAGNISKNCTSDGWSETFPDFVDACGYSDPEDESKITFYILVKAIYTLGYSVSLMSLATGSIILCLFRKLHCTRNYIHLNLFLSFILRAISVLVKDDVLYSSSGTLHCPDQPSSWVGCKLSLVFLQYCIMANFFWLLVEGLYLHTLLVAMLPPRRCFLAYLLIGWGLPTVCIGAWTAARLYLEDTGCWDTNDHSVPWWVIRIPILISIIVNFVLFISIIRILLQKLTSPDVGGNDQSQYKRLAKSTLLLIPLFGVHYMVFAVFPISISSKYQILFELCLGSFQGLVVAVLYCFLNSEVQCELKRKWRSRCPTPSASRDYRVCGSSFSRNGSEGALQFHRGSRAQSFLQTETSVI
Summary of the method: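 Cells were detached with enzyme-free dissociation buffer, washed into stimulation buffer and used at 50,000 cells per data point. Stimuli and AlphaScreen acceptor beads were added for 60 minutes, then lysis buffer with donor beads for 60 to 120 minutes; the AlphaScreen signal reports intracellular cAMP.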

[4] = molecular target: T2, human VPAC2; test: Filter binding assay, membranes of stable VPAC2 cell line, 125I-labeled VIP tracer (Table 2); details: read-out: Human VPAC2 Receptor Binding
Summary of the method: as §1

[5] = molecular target: T3, human VPAC1 (Homo sapiens, UniProt P32241); test: Filter binding assay, membranes of cells transiently transfected with human VPAC1, 125I-labeled VIP tracer (Table 2); design: expressed in transfected cells; details: read-out: Human VPAC1 Receptor Binding
T3 sequence (P32241 31-457): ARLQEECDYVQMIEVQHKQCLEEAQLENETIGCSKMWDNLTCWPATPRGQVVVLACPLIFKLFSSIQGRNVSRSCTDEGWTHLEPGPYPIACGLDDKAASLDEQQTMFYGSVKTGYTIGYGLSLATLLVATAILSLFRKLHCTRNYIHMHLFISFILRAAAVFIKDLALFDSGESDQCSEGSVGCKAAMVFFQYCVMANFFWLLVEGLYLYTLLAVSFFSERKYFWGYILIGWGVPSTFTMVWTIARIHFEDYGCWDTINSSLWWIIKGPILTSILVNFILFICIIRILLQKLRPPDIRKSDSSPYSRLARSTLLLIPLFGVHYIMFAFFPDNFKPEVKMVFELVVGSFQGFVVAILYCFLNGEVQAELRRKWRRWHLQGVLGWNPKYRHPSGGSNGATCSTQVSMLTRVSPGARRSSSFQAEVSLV
Summary of the method: as §1

Question: What does the source list for “Hexanoyl-HSDAVFTDNYTRLRKQVAAKKY[Aib]QSIKNKRYGGPSSGAPPPS [Agonist P236]”?
Answer: Rat Serum Stability (estimated purity in % after 18 hours) [1]: 0.79%; IC50 [2]: 225 nM; EC50 [3]: 0.12 nM; IC50 [4]: 0.37 nM; IC50 [5]: 589 nM

Question: For “Hexanoyl-HSDAVFTDNYTRLQKQVAAKKYLQSIKNKRYGGPSSGAPPPS [Agonist P172]”, which “Rat Serum Stability (estimated purity in % after 18 hours)” value [1] is on record?
Answer: Its value is 5.95%.

Question: And the IC50 [2]?
Answer: The IC50 was 500 nM.

Question: What about the EC50 [3] of the same compound?
Answer: Its EC50 is 0.29 nM.

Question: What about the IC50 [4] of the same compound?
Answer: The IC50 was 3.58 nM.

Question: And the IC50 [5]?
Answer: The IC50 was 412 nM.

Question: For “Hexanoyl-HSDAVFTDNYTRLRK(Ac)QVAAK(Ac)KYLQSIKNKRYGGPSSGAPPPS [Agonist P193]”, which “Rat Serum Stability (estimated purity in % after 18 hours)” value [1] is on record?
Answer: Its value is 0.25%.

Question: And the IC50 [2]?
Answer: Its IC50 is 542 nM.

Question: And the EC50 [3]?
Answer: Its EC50 is 0.18 nM.

Question: What about the IC50 [4] of the same compound?
Answer: The IC50 was 0.37 nM.

Question: And the IC50 [5]?
Answer: The IC50 was 250 nM.

Question: Which “Rat Serum Stability (estimated purity in % after 18 hours)” value [1] does the source give for “Hexanoyl-HSDAVFTDNYTRLRKQVAAFKYLQSIKNKRYGGPSSGAPPPS [Agonist P148]” here?
Answer: The value was less than 0.10%.

Question: And the IC50 [2]?
Answer: Its IC50 is 1000 nM.

Question: What about the EC50 [3] of the same compound?
Answer: The EC50 was 0.1 nM.

Question: What about the IC50 [4] of the same compound?
Answer: The IC50 was 0.77 nM.

Question: What about the IC50 [5] of the same compound?
Answer: Its IC50 is 247 nM.

Question: With “Hexanoyl-HSDALFTDNYTRLRKQVAAKKYLQSIKNKRYGGPSSGAPPPS [Agonist P289]” as the compound, how does the “Rat Serum Stability (estimated purity in % after 18 hours)” value [1] read?
Answer: Its value is 0.04%.

Question: What about the IC50 [2] of the same compound?
Answer: The IC50 was 324 nM.

Question: And the EC50 [3]?
Answer: The EC50 was 0.16 nM.

Question: What about the IC50 [4] of the same compound?
Answer: Its IC50 is 0.38 nM.

Question: And the IC50 [5]?
Answer: Its IC50 is 260 nM.

Question: With “Hexanoyl-HSDAVFTDNYTRLRK(Ac)QVAAKK(Ac)YLQSIKNKRYGGPSSGAPPPS [Agonist P194]” as the compound, how does the “Rat Serum Stability (estimated purity in % after 18 hours)” value [1] read?
Answer: Its value is 1.11%.

Question: And the IC50 [2]?
Answer: The IC50 was 626 nM.

Question: And the EC50 [3]?
Answer: The EC50 was 0.13 nM.

Question: What about the IC50 [4] of the same compound?
Answer: The IC50 was 0.28 nM.

Question: What about the IC50 [5] of the same compound?
Answer: Its IC50 is 173 nM.

Question: Which “Rat Serum Stability (estimated purity in % after 18 hours)” value [1] does the source give for “Hexanoyl-HSDAVFTDNYTRLRKQVAAKRYLQSIKNKRYGGPSSGAPPPS [Agonist P182]” here?
Answer: The value was 0.15%.

Question: And the IC50 [2]?
Answer: Its IC50 is 429 nM.

Question: What about the EC50 [3] of the same compound?
Answer: Its EC50 is 0.29 nM.

Question: What about the IC50 [4] of the same compound?
Answer: Its IC50 is 0.17 nM.

Question: What about the IC50 [5] of the same compound?
Answer: Its IC50 is 205 nM.

Question: For `CCCCCC(=O)N[C@@H](Cc1c[nH]cn1)C(=O)N[C@@H](CO)C(=O)N[C@@H](CC(=O)O)C(=O)N[C@@H](C)C(=O)N[C@H](C(=O)N[C@@H](Cc1ccccc1)C(=O)N[C@H](C(=O)N[C@@H](CC(=O)O)C(=O)N[C@@H](CC(N)=O)C(=O)N[C@@H](Cc1ccc(O)cc1)C(=O)N[C@H](C(=O)N[C@@H](CCCNC(=N)N)C(=O)N[C@@H](CC(C)C)C(=O)N[C@@H](CCCNC(=N)N)C(=O)NC(C)(C)C(=O)N[C@@H](CCC(N)=O)C(=O)N[C@H](C(=O)N[C@@H](C)C(=O)N[C@@H](C)C(=O)N[C@@H](CCCCN)C(=O)NC(C)(C)C(=O)N[C@@H](Cc1ccc(O)cc1)C(=O)N[C@@H](CC(C)C)C(=O)N[C@@H](CCC(N)=O)C(=O)N[C@@H](CO)C(=O)N[C@H](C(=O)N[C@@H](CCCCN)C(=O)N[C@@H](CCC(N)=O)C(=O)NCC(=O)NCC(=O)N1CCC[C@H]1C(=O)N[C@@H](CO)C(=O)N[C@@H](CO)C(=O)NCC(=O)N[C@@H](C)C(=O)N1CCC[C@H]1C(=O)N1CCC[C@H]1C(=O)N1CCC[C@H]1C(=O)N[C@@H](CO)C(=O)O)[C@@H](C)CC)C(C)C)[C@@H](C)O)[C@@H](C)O)C(C)C` [Agonist P298] (Hexanoyl-HSDAVFTDNYTRLR[Aib]QVAAK[Aib]YLQSIKQGGPSSGAPPPS-OH; C-terminus assumed), which “Rat Serum Stability (estimated purity in % after 18 hours)” value [1] is on record?
Answer: Its value is 30.97%.

Question: And the IC50 [2]?
Answer: The IC50 was greater than 25000 nM.

Question: What about the EC50 [3] of the same compound?
Answer: The EC50 was 0.5 nM.

Question: And the IC50 [4]?
Answer: The IC50 was 8.2 nM.

Question: And the IC50 [5]?
Answer: Its IC50 is greater than 3000 nM.

Question: With “Hexanoyl-HSDAVFTDNYTRLRAQVAAKKYLQSIKNKRYGGPSSGAPPPS [Agonist P139]” as the compound, how does the “Rat Serum Stability (estimated purity in % after 18 hours)” value [1] read?
Answer: The value was 0.33%.

Question: What about the IC50 [2] of the same compound?
Answer: The IC50 was greater than 25000 nM.

Question: And the EC50 [3]?
Answer: The EC50 was 0.2 nM.

Question: And the IC50 [4]?
Answer: The IC50 was 0.34 nM.

Question: And the IC50 [5]?
Answer: The IC50 was 235 nM.

Question: For “Hexanoyl-HGEGTFTDNYTRLRKQVAAKKYLQSIKNKRYGGPSSGAPPPS [Agonist P222]”, which “Rat Serum Stability (estimated purity in % after 18 hours)” value [1] is on record?
Answer: Its value is 0.23%.

Question: And the IC50 [2]?
Answer: Its IC50 is 466 nM.

Question: And the EC50 [3]?
Answer: The EC50 was 0.51 nM.

Question: And the IC50 [4]?
Answer: Its IC50 is 1.05 nM.

Question: And the IC50 [5]?
Answer: The IC50 was 177 nM.

Question: With “Hexanoyl-HSDAVFTDNYTRLR[Aib]QVAALKYLQSIKNKRYGGPSSGAPPPS [Agonist P265]” as the compound, how does the “Rat Serum Stability (estimated purity in % after 18 hours)” value [1] read?
Answer: Its value is 8.70%.

Question: What about the IC50 [2] of the same compound?
Answer: The IC50 was greater than 25000 nM.

Question: And the EC50 [3]?
Answer: The EC50 was 0.21 nM.

Question: And the IC50 [4]?
Answer: Its IC50 is 0.68 nM.

Question: What about the IC50 [5] of the same compound?
Answer: Its IC50 is greater than 3000 nM.
